This note sets out measurements from patent publication US20140057895A1, “INDAZOLE- AND PYRROLOPYRIDINE-DERIVATIVE AND PHARMACEUTICAL USE THEREOF” (priority 2011, published 2014).

One experiment deals with T1, 5-HT4 receptor (Cavia porcellus, UniProt O70528).
T1 construct: striatum was isolated which was cryopreserved at −80° C. until use; from tissue; host or cells: guinea pig (Slc-Hartley) striatum membranes
The experiment can be described thus: Test Example 1: Serotonin 4 (5-HT4) receptor binding assay, [3H]-GR113808, guinea pig striatum membranes (Table 96). The following applies: Guinea pig 5-HT4 receptor binding assay, [3H]-GR113808, striatum membranes; mean value of each group. The protocol: The 5-HT4 receptor binding assay and preparations of receptor membrane preparations herein were carried out according to a method of Grossman et al. [see, British J. Pharmacol., (1993) 109, 618].
Slc-Hartley guinea pigs (body weight 300 g to 400 g) were decapitated to remove brain rapidly, and striatum was isolated which was cryopreserved at −80° C. until use. To the obtained tissues were added fifteen fold of Hepes buffer (50 mM, pH 7.4, 4° C.), and the mixture was homogenized by Teflon (trademark) homogenizer and centrifuged at 48,000×g (4° C.) for 15 minutes. To the resulting precipitate was added Hepes buffer (1 ml) to 30 mg by wet weight of tissues, and the mixture was suspended to give receptor membrane preparations.
To an assay tube were added 0.1 nM [^3H]-GR113808 {chemical name: [1-[2-(methylsulfonylamino)ethyl]-4-piperidinyl]methyl 1-methylindole-3-carboxylate}, receptor membrane preparations, and Hepes buffer (50 mM, pH 7.4, 4° C., 1 ml) containing test compounds or 30 μM serotonin; and the mixture was incubated at 37° C. for 30 minutes. On quenching the reaction, the mixture was rapidly filtered on whatman GF/B filter, which was presoaked in 0.1% polyethyleneimine for 1 hour, by using Brandel cell Harvester, and washed with ice-cooled 50 mM Tris-HCl (pH 7.7, 4 ml) three times. To the filter after filtration was added a liquid scintillator (Ecoscint), and then a radioactivity was determined by a liquid scintillation counter.
50% Inhibition concentrations (IC50) were determined from inhibition rates of test compounds to specific bindings which were obtained by subtracting nonspecific bindings from total binding amounts of [^3H]-GR113808.
(§1) In the following table, the compounds used in the test are shown in numbers which correspond to the Example numbers above where the preparations of the compounds are described.

For another experiment, the target named is T2, human 5-HT4b receptor (Homo sapiens, UniProt Q13639).
T2 construct: expressed in transfected cells; host or cells: CHO cells (G418 selection)
T2 sequence (Q13639 whole entry): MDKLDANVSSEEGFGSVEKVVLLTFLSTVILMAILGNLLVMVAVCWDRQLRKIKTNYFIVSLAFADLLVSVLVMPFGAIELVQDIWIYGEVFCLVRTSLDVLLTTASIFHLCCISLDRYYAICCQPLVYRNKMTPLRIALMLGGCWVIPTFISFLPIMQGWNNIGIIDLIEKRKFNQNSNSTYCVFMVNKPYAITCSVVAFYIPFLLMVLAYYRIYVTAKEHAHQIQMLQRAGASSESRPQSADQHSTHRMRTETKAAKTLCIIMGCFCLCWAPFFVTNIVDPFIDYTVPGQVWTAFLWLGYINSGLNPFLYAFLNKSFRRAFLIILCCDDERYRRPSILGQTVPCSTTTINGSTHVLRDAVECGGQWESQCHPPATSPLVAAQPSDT
As to the kind of experiment: Test Example 2: Serotonin 4 (5-HT4) receptor agonist activity assay, cAMP HTRF in CHO cells (Table 97). In kind it is cell-based. As to conditions: cAMP in CHO cells expressing human 5-HT4b receptor, mean value; for Emax: 0.25 h, intrinsic activity, maximal activity of 5-HT defined as 100%, read-out: IA (%); for EC50: concentration showing 50% of IA. The protocol:
The cAMP measurement test used herein was carried out by using CISBIO HTRF (trademark) cAMP Hirange kit according to the manufacturer's instructions attached therewith.
CHO cells expressing human 5-HT4b receptor were incubated in Medium 1 [DMEM/1% NEAA, 1% penicillin/streptomycin (P/S), 0.2 mg/mL GENETICIN (G418), 10% FBS] at 37° C. under 5% CO2 condition. Then, the cells were put into Medium 2 (DMEM/10000 cut FBS, G-418, P/S, NEAA) for 1 to 2 hours, and collected by treating with trypsin containing EDTA. The collected cells were suspended in Assay Buffer 1 [100 mM Hanks/HEPES buffer (pH 7.4)], the suspended cells were mixed with the testing compound on 384-well plates, and the cells were incubated at 31° C. for 15 minutes. To the cells were added cAMP-cryptate solution and cAMP-d2 solution, and they were incubated at room temperature for 1 hour. Then, time-resolved fluorescence was measured by En Vision (excitation wavelength: 330 nm, fluorescence wavelength: 620/665 nm). An intrinsic activity of the compound [IA (%)] and a concentration showing 50% of IA [EC50 (nM)] were calculated from the obtained results. In particular, the intrinsic activity (IA) was calculated on the basis of the maximal activity of 5-HT (measured from 10^−11 M to 10^−7 M) defined as 100%.
as §1
Background: In TR-FRET formats the signal depends on donor and acceptor labels being close together.

Experiment [1] concerns scopolamine-induced cognitive impairment. The experiment can be described thus: Example 5: Y-maze test, scopolamine-induced cognitive impairment, single-agent administration (Table 101). The format is in vivo, ddY mouse. The following applies: p.o., scopolamine-treated, # = P<0.05 vs scopolamine group. The source says: Thus, scopolamine-induced cognitive impairment model, one of the AD-like model, has been used to predict pharmacodynamic signals of putative procognitive compounds, utilizing the acetylcholinesterase inhibitor donepezil for illustration (See, Citations 1 and 2). The present inventors investigated the effect of each compound on reversal of scopolamine-induced deficits in performance of Y-maze test in mice, and they also investigated adjunctive effect of compounds with donepezil on reversal of deficits induced by scopolamine and MK801 in mice.
Used animal: ddY mouse (SLC)
In the experiments, the mice were grouped in the same way using Stat Preclinica (Version 1.03295; Takumi Information Technology Inc.). The selected mice were divided into 5 to 7 groups of 7 to 12 mice using the “completely randomization design by the single variable” program (Analytical program version 1.0.7), with body weight on the testing day. After grouping, p values for Bartlett's test and ANOVA across all groups were greater than 0.2, indicating no significant difference in this parameter among the groups.
The required amount of each compound was weighed and put into a glass homogenizer. […]
The required amount of scopolamine and MK801 were weighed, and saline was added to it to give 0.3 mg/mL and 0.015 mg/mL solution, respectively.
90 Min before the test, the mice were orally administered each compound, donepezil, and vehicle (0.5% methyl cellulose, 10 mL/kg). After 60 min, memory impairment was induced by administering scopolamine (0.6 mg/kg, s.c.) with (co-administration) or without (mono-administration) MK801 (0.03 mg/kg, s.c.). The control group received saline (2 mL/kg, s.c.) rather than scopolamine and MK801.
The Y-maze used herein is a three-arm maze with equal angles between all arms. The mazefloor and walls were constructed from black acrylic resin. The mice were initially placed within one arm, and the sequence and number of arm entries were recorded manually for each mouse over an 8-min period.
Data were processed and analyzed with Microsoft® Office Excel 2003. The alternation behavior was defined as entries into all three arms on consecutive occasions. The percent alternation behavior in each animal was calculated using the following formula, and rounded to one decimal place.
Alternation behavior(%)=[actual alternation/(total arm entries−2)]×100
Restoration ratio of alternation behavior (%) in each animal was calculated using the following formula, and rounded to one decimal place.
Restoration ratio of alternation behavior in each animal (%)=y Alternation behavior in each animal (%)=x Mean of alternation behavior in vehicle-treated group (group No. 1) (%)=A Mean of alternation behavior in scopolamine-treated group (group No. 2) (%)=B
Data were expressed as the mean of the percent alternation behavior, the number of total arm entries and the restoration ratio of alternation behavior.
Values of Y-maze tests are expressed as mean of alternation behavior (n=7−12).
Alternation behaviors in the scopolamine-treated groups were compared to those in the control groups using Wilcoxon rank sum test (Stat preclinical; Version 1.03295; Takumi Information Technology Inc.) with a two-sided significance level of 0.05.
Restoration of alternation behavior was analyzed using Stat Preclinica. Alternation behaviors in the vehicle-treated group were compared to those in the test substance-treated groups using non-parametric Dunnett multiple comparison test (Analytical program version 1.0.2) with a two-sided significance level of 0.05.

The IC50 is the midpoint of a concentration-inhibition curve. A higher IC50 goes with weaker potency in that assay. By EC50 is commonly meant the concentration needed to bring the measured effect to its halfway point. Read a low EC50 as greater potency.

Structures can show the parent of a compound that is named as a salt.

T1 sequence (O70528 whole entry): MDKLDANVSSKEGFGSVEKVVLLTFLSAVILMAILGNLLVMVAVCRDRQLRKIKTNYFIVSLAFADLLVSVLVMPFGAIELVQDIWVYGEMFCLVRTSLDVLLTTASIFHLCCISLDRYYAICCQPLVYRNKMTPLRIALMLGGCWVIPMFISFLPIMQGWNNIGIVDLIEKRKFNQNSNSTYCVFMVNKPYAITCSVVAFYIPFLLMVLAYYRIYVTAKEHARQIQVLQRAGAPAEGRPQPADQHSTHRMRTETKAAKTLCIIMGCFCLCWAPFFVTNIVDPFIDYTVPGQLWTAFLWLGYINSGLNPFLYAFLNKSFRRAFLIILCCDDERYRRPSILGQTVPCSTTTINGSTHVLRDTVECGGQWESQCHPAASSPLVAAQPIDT

`CCc1nn(-c2noc(C3CCN(CCC4CCOCC4)CC3)n2)c2cc(F)ccc12` [Example 137, 3-ethyl-6-fluoro-1-(5-{1-[2-(tetrahydro-2H-pyran-4-yl)ethyl]piperidin-4-yl}-1,2,4-oxadiazol-3-yl)-1H-indazole] yielded an IC50 at 5-HT4 receptor of less than 20 nM. Further, at human 5-HT4b receptor, the Emax turned out to be 66% and the EC50 turned out to be 8.6 nM. For the same compound, in experiment [1] (compound 3 mg/kg), the “Alternation behavior (%)” value is reported as 49.3%. In experiment [1] (compound 10 mg/kg), the “Alternation behavior (%)” value is given as 62.6^# %.

In the case of `CCc1nn(-c2noc(C3CCN(CC4CN(C(=O)OC)C4)CC3)n2)c2c(F)cccc12` [Example 218, methyl 3-({4-[3-(3-ethyl-7-fluoro-1H-indazol-1-yl)-1,2,4-oxadiazol-5-yl]piperidin-1-yl}methyl)azetidine-1-carboxylate], the “Alternation behavior (%)” value in experiment [1] (compound 1 mg/kg) was determined as 59.9%; in experiment [1] (compound 3 mg/kg), 53%; in experiment [1] (compound 10 mg/kg), 61.3%.

Regarding `CCc1nn(-c2noc(C3CCN(CC4CCN(C(=O)OC)CC4)CC3)n2)c2cc(F)ccc12` [Example 171, methyl 4-({4-[3-(3-ethyl-6-fluoro-1H-indazol-1-yl)-1,2,4-oxadiazol-5-yl]piperidin-1-yl}methyl)piperidine-1-carboxylate], the IC50 at 5-HT4 receptor was 31.9 nM. Further, on human 5-HT4b receptor, the Emax turned out to be 51% and the midpoint of the response, the EC50, lay at 30.8 nM.

Consider `CCc1nn(-c2noc(C3CCN(C4CCN(C(=O)OC)CC4)CC3)n2)c2cc(F)ccc12` [Example 230, methyl 4-[3-(3-ethyl-6-fluoro-1H-indazol-1-yl)-1,2,4-oxadiazol-5-yl]-1,4′-bipiperidine-1′-carboxylate], for which the IC50 on 5-HT4 receptor turned out to be 25.1 nM. Also, at human 5-HT4b receptor, the Emax worked out at 65% and a half-maximal effect (EC50) was put at 17.9 nM.

`COCCCN1CCC(c2nc(-n3nc(C(C)C)c4ccccc43)no2)CC1` [Example 85, 1-{5-[1-(3-methoxypropyl)piperidin-4-yl]-1,2,4-oxadiazol-3-yl}-3-(propan-2-yl)-1H-indazole]: at 5-HT4 receptor, the IC50 is 31.1 nM. Also, at human 5-HT4b receptor, the Emax was 125% and the EC50 came to 8.3 nM.

As to `CCc1nn(-c2noc(C3CCN(C[C@@H]4CCCN4C(=O)OC)CC3)n2)c2ccccc12` [Example 178, methyl (2S)-2-({4-[3-(3-ethyl-1H-indazol-1-yl)-1,2,4-oxadiazol-5-yl]piperidin-1-yl}methyl)pyrrolidine-1-carboxylate], the IC50 on 5-HT4 receptor was less than 20 nM. Moreover, at human 5-HT4b receptor, the Emax amounted to 38% and the midpoint of the response, the EC50, lay at 10.9 nM.

As to `CCC(C)N1CCC(c2nc(-n3nc(C4CC4)c4ccccc43)no2)CC1` (centres unmarked) [Example 102, 1-{5-[1-(butan-2-yl)piperidin-4-yl]-1,2,4-oxadiazol-3-yl}-3-cyclopropyl-1H-indazole trifluoroacetate], the IC50 on 5-HT4 receptor was less than 20 nM. On human 5-HT4b receptor, the Emax turned out to be 26% and the concentration for a half-maximal effect (EC50) is 8 nM.

Regarding `CCc1nn(-c2noc(C3CCN(C4CCN(C(C)=O)CC4)CC3)n2)c2cc(F)ccc12` [Example 228, 1-{4-[3-(3-ethyl-6-fluoro-1H-indazol-1-yl)-1,2,4-oxadiazol-5-yl]-1,4′-bipiperidin-1′-yl}ethanone hydrochloride], the IC50 on 5-HT4 receptor was 28.7 nM. Moreover, on human 5-HT4b receptor, the Emax is 66% and a half-maximal effect (EC50) was put at 8.2 nM.

`CCc1nn(-c2noc(C3CCN(CCCOC)CC3)n2)c2ccccc12` [Example 87, 3-ethyl-1-{5-[1-(3-methoxypropyl)piperidin-4-yl]-1,2,4-oxadiazol-3-yl}-1H-indazole trifluoroacetate] yielded an IC50 on 5-HT4 receptor of 21 nM. Further, at human 5-HT4b receptor, the Emax worked out at 80% and a half-maximal effect (EC50) was put at 9.4 nM.

Regarding `CCc1nn(-c2noc(C3CCN(C4CCN(C(C)=O)CC4)CC3)n2)c2c(F)cccc12` [Example 229, 1-{4-[3-(3-ethyl-7-fluoro-1H-indazol-1-yl)-1,2,4-oxadiazol-5-yl]-1,4′-bipiperidin-1′-yl}ethanone hydrochloride], the IC50 at 5-HT4 receptor was less than 20 nM. Also, on human 5-HT4b receptor, the Emax came out at 55% and a half-maximal response (EC50) required 2.9 nM.

On 5-HT4 receptor, `CC(C)CN1CCC(c2nc(-n3nc(C(C)C)c4ccccc43)no2)CC1` [Example 98, 1-{5-[1-(2-methylpropyl)piperidin-4-yl]-1,2,4-oxadiazol-3-yl}-3-(propan-2-yl)-1H-indazole trifluoroacetate] yielded an IC50 of 32.1 nM. At human 5-HT4b receptor, the Emax is 110% and the EC50 stood at 15.5 nM.

With `CCc1nn(-c2noc(C3CCN(CCCO)CC3)n2)c2ccccc12` [Example 261, 3-{4-[3-(3-ethyl-1H-indazol-1-yl)-1,2,4-oxadiazol-5-yl]piperidin-1-yl}propan-1-ol], the IC50 on 5-HT4 receptor was less than 20 nM. Also, on human 5-HT4b receptor, the Emax amounted to 84% and the EC50 is 6.2 nM.

`CCc1nn(-c2noc(C3CCN(C[C@H]4CCN(C(C)=O)C4)CC3)n2)c2cc(F)ccc12.Cl` [Example 205, 1-[(3R)-3-({4-[3-(3-ethyl-6-fluoro-1H-indazol-1-yl)-1,2,4-oxadiazol-5-yl]piperidin-1-yl}methyl)pyrrolidin-1-yl]ethanone hydrochloride]: the “Alternation behavior (%)” value is recorded as 66.9^# % in experiment [1] (compound 1 mg/kg), 54.8% in experiment [1] (compound 3 mg/kg) and 66.7^# % in experiment [1] (compound 10 mg/kg).
